Where a name gives a salt, the structure may show the parent alone.
Experiments:
GLUT4 = GLUT4 carbonylation (K264-HNE adduct) in 3T3-L1 cells overexpressing GLUT4, MRM; assay type: cell-based; settings: 20 μM for 4 hour, FIG. 1A-1B
Procedure: A GLUT4-SNAP fusion construct was generated. 3T3-L1 adipocytes were then retrovirally transduced with the construct to overexpress the GLUT4-SNAP protein. Twenty-four hours after the transduction, the cells were treated with and without 20 μM of 4-HNE for an additional 4 hours. This 4-HNE dose was chosen because it was similar to the physiological levels and was non-toxic. In order to identify and quantitate GLUT4 carbonylation (K264 NHE-adduct or R265 and R246 glutamic semialdehyde adducts), a mass spectroscopy-based multiple reaction monitoring (MRM) method was developed and validated.

3T3-L1 adipocytes [1] = assay: Effect of 4-HNE and H2O2 on insulin-induced glucose uptake by 3T3-L1 adipocytes; assay type: cell-based, mouse; settings: 500 μM for 4 hour, then 100 nM insulin 60 minutes; FIG. 2
Procedure: 3T3-L1 adipocytes (1×10^6) were treated with either 500 μM of 4-HNE or H2O2 or combination of both for 4 hour and were then stimulated with 100 nM insulin for 60 minutes. The glucose uptake was measured by a specific MRM method.

3T3-L1 adipocytes [2] = assay: Restoring glucose uptake in insulin-stimulated 3T3-L1 cells exposed to 4-HNE and H2O2 (FIG. 13); assay type: cell-based, mouse; settings: 10 μM pretreatment 12 hours, then 4HNE and H2O2 4 hours; for glucose uptake impairment induced by 4-HNE and H2O2: FIG. 13
Procedure: Insulin-stimulated 3T3-L1 adipocytes were pretreated with the drug (S)-2-amino-6-((3-aminopropyl)amino)hexanoic acid dihydrochloride (10 μM) for 12 hours followed by exposure to 4HNE and H2O2 for an additional 4 hours. The amounts of glucose taken up by the 3T3-L1 adipocytes were measured by the MRM methods described above. The results in FIG. 13 show the effect of the drug in restoring glucose uptake in insulin-stimulated 3T3-L1 cells exposed to 4-HNE and H2O2: Control cells, no insulin (C− No Ins); control cells, with insulin (C+ Ins); 4HNE+H2O2-treated cells (4HNE/H2O2) and cells treated with drug+4HNE+H2O2 (“APL”).
Insulin-stimulated 3T3-L1 adipocytes were pretreated with the drug (S)-2-amino-5-((6-aminohexyl)amino)pentanoic acid dihydrochloride (10 μM) for 12 hours followed by exposure to 4HNE and H2O2 for an additional 4 hours. The amounts of glucose taken up by the 3T3-L1 adipocytes were measured by the MRM methods described above. FIG. 13 includes the results: cells treated with (S)-2-amino-5-((6-aminohexyl)amino)pentanoic acid trihydrochloride (MC-180351).
Insulin-stimulated 3T3-L1 adipocytes were pretreated with the drug (S)-2-amino-5-(([…])amino)pentanoic acid dihydrochloride (10 μM) for 12 hours followed by exposure to 4HNE and H2O2 for an additional 4 hours. The amounts of glucose taken up by the 3T3-L1 adipocytes were measured by the MRM methods described above. FIG. 13 includes the results: cells treated with (S)-2-amino-5-((5-aminopentyl)amino)pentanoic acid trihydrochloride (MC-180352).

| SMILES | formation of K264-HNE GLUT4 adduct (GLUT4) | reduction of glucose uptake (3T3-L1 adipocytes [1]) | GLUT4 carbonylations (3T3-L1 adipocytes [2]) | glucose uptake impairment induced by 4-HNE and H2O2 (3T3-L1 adipocytes [2]) |
| --- | --- | --- | --- | --- |
| CCCCCC(O)/C=C/C=O (stereo not shown) [Example 4-HNE, 4-hydroxynonenal] | induced the formation of the K264-HNE adduct | 32% |  |  |
| NCCCCCCNCCC[C@H](N)C(=O)O [MC-180351, (S)-2-amino-5-((6-aminohexyl)amino)pentanoic acid trihydrochloride] |  |  | reduce GLUT4 carbonylations | prevent glucose uptake impairment induced by 4-HNE and H2O2 |
| OO [Example H2O2, H2O2] |  | 66% |  |  |
| NCCCCCNCCC[C@H](N)C(=O)O [MC-180352, (S)-2-amino-5-((5-aminopentyl)amino)pentanoic acid trihydrochloride] |  |  | reduce GLUT4 carbonylations | prevent glucose uptake impairment induced by 4-HNE and H2O2 |
